The values that follow come from patent publication US7090872B2, “Antioxidant, skin preparation for external use, cosmetic and food” (Nichirei Biosciences Inc., priority 2002, dated 2006).

The assay in a line: Antioxidative activity measurement using linoleic acid (ferric thiocyanate method). Conditions: 0.023 mg of vitamin C (amount contained in 0.4 mg of the solid); control = 100%.

Experimental: Next, the antioxidative activity of the obtained extract was measured by antioxidative activity measurement using linoleic acid (ferric thiocyanate method).
Specifically, a mixture of 0.4 mg of the acerola seed extract, 2 ml of 99.5% ethanol, and 2 ml of distilled water was mixed with a reaction liquid composed of 2 ml of 2.5% (w/v) linoleic acid (99.5% ethanol solution) and 4 ml of a 0.05 M phosphate buffer (pH 7.0), and placed in a brown threaded bottle, to thereby prepare 10 ml of a test liquid. On the other hand, test liquids as positive controls were prepared in the same way using α-tocopherol or BHA in place of the acerola seed extract at the same content in the reaction liquid. […] Samples were taken out at intervals, and measured by the following methods. […]
First, to a mixture of 0.1 ml of the sample, 9.7 ml of 75% ethanol, and 0.1 ml of a 30% aqueous solution of ammonium rhodanide, 0.1 ml of 2×10^−2 M ferrous chloride (3.5% hydrochloric acid solution) was added, and exactly 3 minutes later, the absorbance at 500 nm was measured. The same measurement was made with the blanks, and Δabsorbance was taken according to the following formula: Δ absorbance=(absorbance of main sample)−(absorbance of blank). The absorbance increases with oxidation of the sample, and after reaching the maximum, decreases with consumption of the sample to be oxidized. […]

On to `O=C1O[C@H]([C@@H](O)CO)C(O)=C1O` [vitamin C], for which the “degree of oxidation on day 7” value worked out at 115.8%.
